Literature values in patent US8980870B2, “Solid telmisartan pharmaceutical formulations” (Boehringer Ingelheim International GmbH, priority 2002, dated 2015).

Conditions: physiological pH range of the gastrointestinal tract, between pH 1 to 7; both polymorphic forms A and B

In the case of CCCc1nc2c(C)cc(-c3nc4ccccc4n3C)cc2n1Cc1ccc(-c2ccccc2C(=O)O)cc1 [telmisartan, 4′-[2-n-propyl-4-methyl-6-(1-methylbenzimidazol-2-yl)benzimidazol-1-ylmethyl]biphenyl-2-carboxylic acid], the “solubility in aqueous systems” value is given as “very poor solubility”.
